Laboratory results: PMC8910920 (International Journal of Molecular Sciences, 2022)
Values joined by “and” are separate entries in the source; they are usually repeats but may differ in a detail not shown here. Equal entries are not always repeated.

Assays:
serum proteins = assay: Protein binding; assay type: in vitro ADME, human
[1] = test system: CCI rats, cold hypersensitivity; assay: CCI model of neuropathic pain, cold sensitivity (acetone test); assay type: in vivo, rat; conditions: for cold hypersensitivity in CCI rats: 30 min after injection
Method: The CCI model of neuropathic pain allowed the evaluation of the effect RGM8-51 on cold, heat and mechanical sensitivity, as assayed by the acetone test, the Hargreaves test, and the automatized von Frey test, respectively. RGM8-51 was applied either locally (i.pl.; 10 µg) in the affected paw or systemically (intraperitoneally, i.p., 10 and 30 mg/kg) and the effect evaluated before (Baseline) and after CCI surgery. The nocifensive response after administration of RGM8-51 was compared with that of vehicle, while non-operated animals and the uninjured (contralateral) hind paw in CCI animals were used as controls.
Adult male Sprague-Dawley rats (weighing 200–220 g/6–8 weeks old) were used in these experiments. All experimental procedures were conducted according to the animal welfare guidelines of the European Community (European Directive 2010/63/UE) to minimize animal suffering and were approved by Universidad Complutense de Madrid and Comunidad de Madrid ethical committees on animal experimentation (PROEX 207.8/21). […]
For behavioral testing, rats were placed in individual methacrylate boxes with a wire mesh floor, and after a period of 15 min acclimatization, the cold, heat and mechanical sensitivity of the ipsilateral and contralateral paws was determined. Cold sensitivity was assessed with the acetone test. In total, 100 µL acetone were locally applied to the plantar surface of the hind paw and the duration of the subsequent nocifensive response (licking, brushing, and flinching of the paw) was determined during 60 s. Acetone application and assessment were repeated 2 times with a 5 min interval and the sum of the two values was recorded. Heat sensitivity was determined with the Hargreaves test, which uses infrared light as a heat source, with a Hargreaves apparatus (Serie 8, Model 336, IITC Life Science, Woodland Hills, CA USA). The light beam was directed to the plantar surface of the hind paw and the time from the beginning of irradiation to the appearance of first paw withdrawal movement was measured (paw withdrawal latency). […]

rTRPM8 = molecular target: T1, rTRPM8 (Rattus norvegicus, UniProt Q8R455); assay: Whole-cell patch-clamp, HEK293-rTRPM8 cells; assay type: cell-based
T1 construct: expressed in transfected cells
T1 sequence (Q8R455 whole entry): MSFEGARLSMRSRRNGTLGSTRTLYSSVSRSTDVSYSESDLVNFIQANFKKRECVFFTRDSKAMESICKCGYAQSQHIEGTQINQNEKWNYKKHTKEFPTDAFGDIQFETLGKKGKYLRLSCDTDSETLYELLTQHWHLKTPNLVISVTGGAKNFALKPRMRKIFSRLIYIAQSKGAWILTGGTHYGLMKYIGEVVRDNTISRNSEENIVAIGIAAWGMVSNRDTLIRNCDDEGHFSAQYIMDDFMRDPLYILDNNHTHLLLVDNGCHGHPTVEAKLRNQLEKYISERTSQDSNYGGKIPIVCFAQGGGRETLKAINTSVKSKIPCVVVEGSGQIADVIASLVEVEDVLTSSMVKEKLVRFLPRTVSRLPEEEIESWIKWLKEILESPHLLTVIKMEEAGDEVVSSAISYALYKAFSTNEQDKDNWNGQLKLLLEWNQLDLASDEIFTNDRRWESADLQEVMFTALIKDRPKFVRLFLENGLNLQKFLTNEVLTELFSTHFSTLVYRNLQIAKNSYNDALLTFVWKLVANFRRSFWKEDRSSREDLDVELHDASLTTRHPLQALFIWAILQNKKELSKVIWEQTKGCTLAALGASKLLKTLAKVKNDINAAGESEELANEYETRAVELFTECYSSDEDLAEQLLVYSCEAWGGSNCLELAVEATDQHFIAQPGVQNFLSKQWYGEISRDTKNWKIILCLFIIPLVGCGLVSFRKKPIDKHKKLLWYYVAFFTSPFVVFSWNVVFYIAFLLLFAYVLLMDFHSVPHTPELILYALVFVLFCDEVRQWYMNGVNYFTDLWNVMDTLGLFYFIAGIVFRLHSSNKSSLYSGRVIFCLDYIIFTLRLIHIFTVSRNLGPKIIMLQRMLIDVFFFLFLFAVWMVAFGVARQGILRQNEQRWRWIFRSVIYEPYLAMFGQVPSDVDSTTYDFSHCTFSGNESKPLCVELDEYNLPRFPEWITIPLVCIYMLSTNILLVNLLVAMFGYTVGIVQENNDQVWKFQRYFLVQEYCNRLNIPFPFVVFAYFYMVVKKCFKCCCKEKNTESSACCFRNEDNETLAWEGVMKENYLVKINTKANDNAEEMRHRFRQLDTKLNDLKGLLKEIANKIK
Method: To confirm the antagonistic activity, electrophysiology (patch-clamp) studies were performed on HEK293 cells expressing the rTRPM8 channel. […] Then, using a holding voltage of −60 mV, different concentrations of RGM8-51 were used to establish the concentration/response curve for rTRPM8 current blockade.
Whole-cell patch-clamp recordings from HEK293-rTRPM8 cells were carried out 2 days after seeding on 12 mm Ø glass coverslips treated with poly-L-lysine solution (Sigma Aldrich, Spain); the intracellular pipette solution contained (in mM) 150 NaCl, 5 EGTA, 3 MgCl2 and 10 HEPES, adjusted to pH 7.2 with NaOH, and the extracellular solution contained (in mM) 150 NaCl, 6 CsCl, 1.5 CaCl2, 1 MgCl2, 10 D-glucose and 10 HEPES, adjusted to pH 7.4 with NaOH. The TRPM8 activity was measured by the application of two pulses of 100 μM menthol in a time interval of 2 min and a 30 s perfusion of the different compound concentrations before the second menthol pulse.
Data were sampled at 10 kHz (EPC10 amplifier with PatchMaster 2.53 software, HEKA Electronics, Lambrecht, Germany) and low-pass filtered at 3 kHz for analysis (PatchMaster 2.53 and GraphPad Prism 6.0, Graphpad Software, San Diego, CA, USA). The series resistance was <10 MΩ and to minimize voltage errors was compensated by 60–80%. […] Cell capacitance was measured and used to estimate the current density (J, pA/pF).
Data analysis: For the whole-cell patch-clamp experiments, results are expressed as the percentage of remaining activation of the TRPM8 channel. This is calculated by normalizing the ratio (p2/p1) of testing conditions to the ratio (p2/p1) of the control condition. […] All data are expressed as the mean ± standard error of the mean (SEM) (n = 5–8). In the current-clamp experiments, the change in membrane potential is expressed as the difference between the resting membrane potential and the membrane potential after the addition of a stimuli. Data were analyzed as previously described (GraphPad 6.0, one-way ANOVA followed by Bonferroni multiple comparisons test, and ROUT method, Q = 10%).

Structure (SMILES): C[C@@H]1C(=O)N(C[C@H](Cc2ccccc2)N(Cc2ccccc2)Cc2ccccc2)[C@]1(Cc1ccccc1)C(=O)OC(C)(C)C [RGM8-51, 4(S)-Benzyl-3S-methyl-4-(tert-butoxy)carbonyl-1-[(2′S-dibenzylamino-3′-phenyl)prop-1′-yl]-2-oxoazetidine]
- Binding to proteins (%) (serum proteins): 100% and 99–100%
- cold hypersensitivity in CCI rats ([1]; i.p. 10 and 30 mg/kg): inhibited it dose-dependently
- cold hypersensitivity in CCI rats ([1]; i.pl. 10 µg): reduced cold hypersensitivity
- response to cold in non-operated animals (baseline) or contralateral uninjured paw ([1]; i.pl. or i.p.): no effect was observed
- menthol-evoked outward rectifying current (rTRPM8; 10 μM compound, 100 µM menthol): clearly reduced
- IC50 (rTRPM8; HEK293-rTRPM8, 100 μM menthol, holding voltage −60 mV): 970 ± 1560 nM
